# Laboratory results as given in PubChem BioAssay (NCI).
#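 All cell lines were grown in 96-well plates and treated with compound for 48 hours. GI50 = concentration required for 50% inhibition of growth. The concentration for full growth arrest is given as TGI.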
# What was measured:
# Test in all cases: NCI anticancer screen, dose series, 48 h
# UO-31 renal = tested on: UO-31 renal
# OVCAR-5 ovarian = tested on: OVCAR-5 ovarian
# HCT-116 colon = tested on: HCT-116 colon
# OVCAR-4 ovarian = tested on: OVCAR-4 ovarian
# SK-OV-3 ovarian = tested on: SK-OV-3 ovarian
# SF-268 CNS = tested on: SF-268 CNS
# MALME-3M melanoma = tested on: MALME-3M melanoma
# RXF 393 renal = tested on: RXF 393 renal
# UACC-62 melanoma = tested on: UACC-62 melanoma
# MDA-MB-231 breast = tested on: MDA-MB-231 breast
structure (smiles),measurement,setting,value
CC(=O)C1C(=O)C(=O)N(c2ccccc2C(C)C)C1=O (stereo not given),TGI,UO-31 renal,> 100 µM
same,TGI,OVCAR-5 ovarian,> 100 µM
same,TGI,HCT-116 colon,> 100 µM
same,TGI,OVCAR-4 ovarian,> 100 µM
same,TGI,SK-OV-3 ovarian,> 100 µM
same,TGI,SF-268 CNS,> 100 µM
same,TGI,MALME-3M melanoma,> 100 µM
same,TGI,RXF 393 renal,> 100 µM
same,TGI,UACC-62 melanoma,> 100 µM
COc1ccc(C2SC(C)C(=O)N2NC(=O)C(O)c2ccccc2)cc1OC (stereo not given),GI50,UO-31 renal,> 100 µM
same,TGI,UO-31 renal,> 100 µM
same,GI50,OVCAR-5 ovarian,> 100 µM
same,TGI,OVCAR-5 ovarian,> 100 µM
same,GI50,HCT-116 colon,> 100 µM
same,TGI,HCT-116 colon,> 100 µM
same,GI50,OVCAR-4 ovarian,> 100 µM
same,TGI,OVCAR-4 ovarian,> 100 µM
same,GI50,MDA-MB-231 breast,> 100 µM
same,TGI,MDA-MB-231 breast,> 100 µM
same,GI50,SK-OV-3 ovarian,> 100 µM
same,TGI,SK-OV-3 ovarian,> 100 µM
same,GI50,SF-268 CNS,> 100 µM
same,TGI,SF-268 CNS,> 100 µM
same,GI50,RXF 393 renal,> 100 µM
same,TGI,RXF 393 renal,> 100 µM
same,GI50,UACC-62 melanoma,> 100 µM
same,TGI,UACC-62 melanoma,> 100 µM
Cc1cccc(C(C)C)c1NC(=O)CC1C(=O)Nc2ccccc2S1(=O)=O (stereo not given),TGI,UO-31 renal,84.4 µM
same,TGI,OVCAR-5 ovarian,> 73.1 µM
same,TGI,HCT-116 colon,> 46.9 µM
same,TGI,OVCAR-4 ovarian,29 µM
same,TGI,SK-OV-3 ovarian,> 100 µM
same,TGI,SF-268 CNS,29.5 µM
same,TGI,MALME-3M melanoma,50.9 µM
same,TGI,RXF 393 renal,25.8 µM
same,TGI,UACC-62 melanoma,> 51.1 µM
CN1c2ccccc2N(C)C23N(C)c4ccccc4N(C)C12N(C)c1ccccc1N3C (stereo not given),TGI,UO-31 renal,> 100 µM
same,TGI,OVCAR-5 ovarian,> 100 µM
same,TGI,HCT-116 colon,> 100 µM
same,TGI,SF-268 CNS,> 100 µM
same,TGI,MALME-3M melanoma,> 100 µM
same,TGI,RXF 393 renal,> 100 µM
same,TGI,UACC-62 melanoma,> 100 µM
Cc1ccc(Nc2nc(C)c(C(/C=C/c3ccc(/C=C/C(=N/NC(=O)C[n+]4ccccc4)c4sc(Nc5ccc(C)cc5[N+](=O)[O-])nc4C)cc3)=N\NC(=O)C[n+]3ccccc3)s2)c([N+](=O)[O-])c1,TGI,UO-31 renal,> 100 µM
same,TGI,OVCAR-5 ovarian,> 100 µM
same,TGI,HCT-116 colon,> 100 µM
same,TGI,OVCAR-4 ovarian,> 100 µM
same,TGI,SK-OV-3 ovarian,> 100 µM
same,TGI,SF-268 CNS,> 100 µM
same,TGI,MALME-3M melanoma,> 100 µM
same,TGI,RXF 393 renal,> 100 µM
same,TGI,UACC-62 melanoma,67 µM
COc1ccc(/C=N/N=C(\N)NO)c(OC)c1,TGI,UO-31 renal,> 100 µM
same,TGI,OVCAR-5 ovarian,36.1 µM
same,TGI,HCT-116 colon,> 100 µM
same,TGI,OVCAR-4 ovarian,> 100 µM
same,TGI,SK-OV-3 ovarian,> 100 µM
same,TGI,SF-268 CNS,> 100 µM
same,TGI,MALME-3M melanoma,> 100 µM
same,TGI,RXF 393 renal,> 100 µM
same,TGI,UACC-62 melanoma,> 100 µM
COc1cc([C@H]2OC[C@H]3[C@@H]2CO[C@@H]3c2cc(OC)c3c(c2)OCO3)cc(OC)c1OC,TGI,UO-31 renal,> 100 µM
same,TGI,OVCAR-5 ovarian,> 100 µM
same,TGI,HCT-116 colon,> 100 µM
same,TGI,OVCAR-4 ovarian,> 100 µM
same,TGI,MDA-MB-231 breast,> 100 µM
same,TGI,SK-OV-3 ovarian,> 100 µM
same,TGI,SF-268 CNS,> 100 µM
same,TGI,UACC-62 melanoma,> 100 µM
[N-]=[N+]=NC(CI)c1cn([C@H]2C[C@H](O)[C@@H](CO)O2)c(=O)[nH]c1=O (stereo not given in full),TGI,UO-31 renal,> 100 µM
same,TGI,OVCAR-5 ovarian,> 100 µM
same,TGI,HCT-116 colon,> 100 µM
same,TGI,SK-OV-3 ovarian,> 100 µM
same,TGI,MALME-3M melanoma,> 100 µM
same,TGI,RXF 393 renal,> 100 µM
same,TGI,UACC-62 melanoma,> 100 µM
Cc1ccccc1NC(=O)C(=O)CC(=O)c1c(C)n([O-])c2ccccc2[n+]1=O,TGI,UO-31 renal,> 100 µM
same,TGI,OVCAR-5 ovarian,> 100 µM
same,TGI,HCT-116 colon,> 100 µM
same,TGI,OVCAR-4 ovarian,> 100 µM
same,TGI,SK-OV-3 ovarian,> 100 µM
same,TGI,SF-268 CNS,> 100 µM
same,TGI,MALME-3M melanoma,> 100 µM
same,TGI,RXF 393 renal,> 100 µM
same,TGI,UACC-62 melanoma,> 100 µM
COc1cc(C2C(Cl)C(=O)N2NC(=O)c2ccc(N)cc2)ccc1O (stereo not given),TGI,UO-31 renal,> 100 µM
same,TGI,OVCAR-5 ovarian,> 100 µM
same,TGI,HCT-116 colon,47.9 µM
same,TGI,OVCAR-4 ovarian,> 100 µM
same,TGI,SK-OV-3 ovarian,> 100 µM
same,TGI,MALME-3M melanoma,32.1 µM
same,TGI,UACC-62 melanoma,> 100 µM
CCOC(=O)NC(=O)c1cn(CCN2CCN(c3ncnc4nc[nH]c34)CC2)c(=O)[nH]c1=O,TGI,UO-31 renal,> 100 µM
same,TGI,OVCAR-5 ovarian,> 100 µM
same,TGI,HCT-116 colon,> 100 µM
same,TGI,SK-OV-3 ovarian,> 100 µM
same,TGI,SF-268 CNS,> 100 µM
same,TGI,MALME-3M melanoma,> 100 µM
same,TGI,RXF 393 renal,> 100 µM
same,TGI,UACC-62 melanoma,> 100 µM
CCOC(=O)C(=Cc1cccnc1C)C(=O)OCC,TGI,UO-31 renal,17.6 µM
same,TGI,OVCAR-5 ovarian,31.8 µM
same,TGI,HCT-116 colon,17.9 µM
same,TGI,OVCAR-4 ovarian,27.4 µM
same,TGI,SK-OV-3 ovarian,25 µM
same,TGI,SF-268 CNS,31.3 µM
same,TGI,MALME-3M melanoma,26.8 µM
same,TGI,RXF 393 renal,9.8 µM
same,TGI,UACC-62 melanoma,20.1 µM
C[Si](C)(C)c1ccc(-c2sc(-c3ccc([Si](C)(C)C)s3)c3c2C[Si]2(C3)Cc3c(-c4ccc([Si](C)(C)C)s4)sc(-c4ccc([Si](C)(C)C)s4)c3C2)s1,TGI,UO-31 renal,> 100 µM
same,TGI,OVCAR-5 ovarian,> 100 µM
same,TGI,HCT-116 colon,> 100 µM
same,TGI,OVCAR-4 ovarian,> 100 µM
same,TGI,SK-OV-3 ovarian,> 100 µM
same,TGI,SF-268 CNS,> 100 µM
same,TGI,MALME-3M melanoma,> 100 µM
same,TGI,RXF 393 renal,> 100 µM
same,TGI,UACC-62 melanoma,> 100 µM
CCc1cccc(C)c1NC(=O)C(=O)Cc1nc2ccccc2s1,TGI,UO-31 renal,> 100 µM
same,TGI,HCT-116 colon,> 100 µM
same,TGI,OVCAR-4 ovarian,> 100 µM
same,TGI,SK-OV-3 ovarian,> 100 µM
same,TGI,SF-268 CNS,> 100 µM
same,TGI,MALME-3M melanoma,> 100 µM
same,TGI,RXF 393 renal,> 100 µM
same,TGI,UACC-62 melanoma,> 100 µM
CN(/N=C/c1cccc2cccnc12)c1ccccc1,TGI,UO-31 renal,> 100 µM
same,TGI,OVCAR-5 ovarian,> 100 µM
same,TGI,OVCAR-4 ovarian,> 100 µM
same,TGI,SK-OV-3 ovarian,> 100 µM
same,TGI,SF-268 CNS,> 100 µM
same,TGI,MALME-3M melanoma,> 100 µM
same,TGI,RXF 393 renal,> 100 µM
same,TGI,UACC-62 melanoma,> 100 µM
COc1ccc2ccccc2c1C1OC(=O)c2ccccc21 (stereo not given),TGI,UO-31 renal,> 100 µM
same,TGI,OVCAR-5 ovarian,> 100 µM
same,TGI,OVCAR-4 ovarian,> 100 µM
same,TGI,SK-OV-3 ovarian,> 100 µM
same,TGI,SF-268 CNS,> 100 µM
same,TGI,MALME-3M melanoma,> 100 µM
same,TGI,UACC-62 melanoma,> 100 µM
C1=C2/CC[C@H](Sc3ccccc3)[C@H]2C2(CCCCC/1)OCCO2,TGI,UO-31 renal,> 100 µM
same,TGI,OVCAR-5 ovarian,79.6 µM
same,TGI,HCT-116 colon,> 100 µM
same,TGI,SK-OV-3 ovarian,> 100 µM
same,TGI,SF-268 CNS,> 100 µM
same,TGI,MALME-3M melanoma,73.8 µM
same,TGI,UACC-62 melanoma,62.4 µM
O=S1(=O)OCCOS(=O)(=O)C1Cc1ccccc1,TGI,UO-31 renal,> 100 µM
same,TGI,OVCAR-5 ovarian,> 100 µM
same,TGI,HCT-116 colon,> 100 µM
same,TGI,OVCAR-4 ovarian,> 100 µM
same,TGI,SK-OV-3 ovarian,> 100 µM
same,TGI,SF-268 CNS,> 100 µM
same,TGI,MALME-3M melanoma,> 100 µM
same,TGI,RXF 393 renal,> 100 µM
same,TGI,UACC-62 melanoma,> 100 µM
COc1ccc(C(C#N)Cc2cc(OC)c(OC)c(OC)c2)cc1 (stereo not given),TGI,UO-31 renal,> 100 µM
same,TGI,OVCAR-5 ovarian,> 100 µM
same,TGI,HCT-116 colon,> 100 µM
same,TGI,OVCAR-4 ovarian,> 100 µM
same,TGI,SF-268 CNS,> 100 µM
same,TGI,MALME-3M melanoma,> 100 µM
same,TGI,RXF 393 renal,45.2 µM
same,TGI,UACC-62 melanoma,> 100 µM
Cc1ccc(C)c(NC(=O)CC/C(=N\NC(=O)c2c(O)ccc3ccccc23)C(C)C(=O)c2ccc(O)cc2)c1 (stereo not given),TGI,UO-31 renal,> 100 µM
same,TGI,OVCAR-5 ovarian,> 100 µM
same,TGI,HCT-116 colon,> 100 µM
same,TGI,OVCAR-4 ovarian,> 100 µM
same,TGI,SF-268 CNS,> 100 µM
same,TGI,MALME-3M melanoma,90.2 µM
same,TGI,RXF 393 renal,> 100 µM
same,TGI,UACC-62 melanoma,34.3 µM
COC(=O)C1=C(c2cc(OC)c(OC)c(OC)c2)OC(c2ccc(OC)c(OC)c2)C1 (stereo not given),TGI,UO-31 renal,> 100 µM
same,TGI,OVCAR-5 ovarian,> 100 µM
same,TGI,HCT-116 colon,> 100 µM
same,TGI,OVCAR-4 ovarian,> 100 µM
same,TGI,SK-OV-3 ovarian,> 100 µM
same,TGI,SF-268 CNS,> 100 µM
same,TGI,MALME-3M melanoma,> 100 µM
same,TGI,RXF 393 renal,> 100 µM
same,TGI,UACC-62 melanoma,> 100 µM
C[C@]12CCC3[C@@H](CC[C@@H]4c5nonc5CC[C@]34C)C1C/C(=N/O)C2=O (stereo not given in full),TGI,UO-31 renal,> 100 µM
same,TGI,OVCAR-5 ovarian,> 100 µM
same,TGI,HCT-116 colon,> 100 µM
same,TGI,OVCAR-4 ovarian,> 100 µM
same,TGI,SK-OV-3 ovarian,> 100 µM
same,TGI,SF-268 CNS,> 100 µM
same,TGI,MALME-3M melanoma,> 100 µM
same,TGI,RXF 393 renal,> 100 µM
same,TGI,UACC-62 melanoma,> 100 µM
CN(C(=O)c1ccco1)C(=S)N1CCN(c2ccccc2)CC1,TGI,UO-31 renal,> 100 µM
same,TGI,OVCAR-5 ovarian,> 100 µM
same,TGI,HCT-116 colon,> 100 µM
same,TGI,OVCAR-4 ovarian,> 100 µM
same,TGI,SK-OV-3 ovarian,> 100 µM
same,TGI,SF-268 CNS,> 100 µM
same,TGI,MALME-3M melanoma,> 100 µM
same,TGI,RXF 393 renal,> 100 µM
same,TGI,UACC-62 melanoma,> 100 µM
